Patent US9695154B2, “Heteroaryl inhibitors of sumo activating enzyme” (MILLENNIUM PHARMACEUTICALS, INC., priority 2013, dated 2017)

Biological target: T1, recombinant human SAE enzyme (Homo sapiens, UniProt Q9UBT2)
T1 sequence (Q9UBT2 1-640): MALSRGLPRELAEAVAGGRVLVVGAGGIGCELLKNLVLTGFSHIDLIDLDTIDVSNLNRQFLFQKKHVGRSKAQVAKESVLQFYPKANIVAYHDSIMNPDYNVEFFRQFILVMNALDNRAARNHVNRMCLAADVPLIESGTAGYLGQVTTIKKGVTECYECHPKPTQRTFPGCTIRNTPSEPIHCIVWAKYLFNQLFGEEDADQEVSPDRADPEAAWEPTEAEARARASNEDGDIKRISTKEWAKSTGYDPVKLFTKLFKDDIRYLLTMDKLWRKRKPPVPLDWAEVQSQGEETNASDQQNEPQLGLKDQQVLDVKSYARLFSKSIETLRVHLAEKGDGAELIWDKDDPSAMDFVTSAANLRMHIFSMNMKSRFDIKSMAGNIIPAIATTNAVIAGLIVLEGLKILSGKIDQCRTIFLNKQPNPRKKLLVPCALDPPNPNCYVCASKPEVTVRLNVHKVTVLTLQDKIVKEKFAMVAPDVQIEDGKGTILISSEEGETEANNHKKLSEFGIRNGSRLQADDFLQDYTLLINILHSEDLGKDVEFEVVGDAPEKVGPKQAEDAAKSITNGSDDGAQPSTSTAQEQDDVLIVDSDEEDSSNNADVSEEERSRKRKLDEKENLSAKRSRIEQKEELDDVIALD
T1 sequence (Q9UBE0 1-346 partner): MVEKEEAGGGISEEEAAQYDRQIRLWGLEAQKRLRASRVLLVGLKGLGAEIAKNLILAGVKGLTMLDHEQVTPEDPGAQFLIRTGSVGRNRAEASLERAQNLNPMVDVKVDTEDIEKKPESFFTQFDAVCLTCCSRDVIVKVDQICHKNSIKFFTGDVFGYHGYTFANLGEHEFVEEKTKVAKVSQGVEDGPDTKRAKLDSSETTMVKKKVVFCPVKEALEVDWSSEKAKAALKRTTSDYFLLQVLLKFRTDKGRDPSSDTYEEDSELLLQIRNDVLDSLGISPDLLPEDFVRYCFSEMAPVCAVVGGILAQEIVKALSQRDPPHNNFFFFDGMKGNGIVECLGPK
Assay: SAE HTRF Enzyme Assay
Type: biochemical
Settings: for IC50: class symbols A-C; for inhibition at 0.111 µM: compound concentration 0.111 μM, read-out: Percent Inhibition
How it was run: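 Sumoylation of Ubc9-GST by recombinant human SAE was followed by time-resolved FRET between Eu-cryptate anti-Flag and allophycocyanin anti-GST antibodies. The enzyme step used low ATP (0.5 μM) at pH 7.5 and ran 105 min at 24° C.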

| Compound | IC50 [nM] | inhibition at 0.111 µM [%] |
| --- | --- | --- |
| NS(=O)(=O)OC[C@@H]1C[C@@H](Nc2ncncc2C(=O)c2ccn(Cc3cccc(Br)c3)c2)C[C@@H]1O [Compound I-319, {(1S,2S,4R)-4-[(5-{[1-(3-Bromobenzyl)-1H-pyrrol-3-yl]carbonyl}pyrimidin-4-yl)amino]-2-hydroxycyclopentyl}methyl sulfamate] | < 10 | 99 |
| NS(=O)(=O)OC[C@H]1C[C@@H](Nc2ncncc2C(=O)c2cc(Cl)n(Cc3ccc(F)c(Br)c3)c2)[C@@H](F)[C@@H]1O [Compound I-320, {(1R,2R,3R,4R)-4-[(5-{[1-(3-bromo-4-fluorobenzyl)-5-chloro-1H-pyrrol-3-yl]carbonyl}pyrimidin-4-yl)amino]-3-fluoro-2-hydroxycyclopentyl}methyl sulfamate] | < 10 | 98 |
| C=CS(=O)(=O)c1cccc(Cn2ccc(C(=O)c3cncnc3N[C@@H]3C[C@H](COS(N)(=O)=O)[C@@H](O)[C@H]3O)n2)c1 [Compound I-321, [(1R,2R,3S,4R)-2,3-Dihydroxy-4-{[5-({1-[3-(vinylsulfonyl)benzyl]-1H-pyrazol-3-yl}carbonyl)pyrimidin-4-yl]amino}cyclopentyl]methyl sulfamate] | 10 to 100 | 89 |
| NS(=O)(=O)OC[C@H]1C[C@@H](Nc2ncncc2C(=O)c2ccn(Cc3cc4ccccc4s3)c2)[C@@H](F)[C@@H]1O [Compound I-322, {(1R,2R,3R,4R)-4-[(5-{[1-(1-benzothiophen-2-ylmethyl)-1H-pyrrol-3-yl]carbonyl}pyrimidin-4-yl)amino]-3-fluoro-2-hydroxycyclopentyl}methyl sulfamate] | < 10 | 99 |
| NS(=O)(=O)OC[C@H]1C[C@@H](Nc2ncncc2C(=O)c2ccn(Cc3cc(Br)ccn3)n2)[C@H](O)[C@@H]1O [Compound I-324, [(1R,2R,3S,4R)-4-{[5-({1-[(4-bromopyridin-2-yl)methyl]-1H-pyrazol-3-yl}carbonyl)pyrimidin-4-yl]amino}-2,3-dihydroxycyclopentyl]methyl sulfamate] | < 10 | 100 |
| COc1cccc(Cn2ccc(C(=O)c3cncnc3N[C@@H]3C[C@H](COS(N)(=O)=O)[C@@H](O)[C@H]3O)n2)c1 [Compound I-325, {(1R,2R,3S,4R)-2,3-dihydroxy-4-[(5-{[1-(3-methoxybenzyl)-1H-pyrazol-3-yl]carbonyl}pyrimidin-4-yl)amino]cyclopentyl}methyl sulfamate] | < 10 | 99 |
| NS(=O)(=O)OC[C@H]1C[C@@H](Nc2ncncc2C(=O)c2ccn(Cc3cc(F)c(F)c(F)c3)n2)[C@H](O)[C@@H]1O [Compound I-326, {(1R,2R,3S,4R)-2,3-dihydroxy-4-[(5-{[1-(3,4,5-trifluorobenzyl)-1H-pyrazol-3-yl]carbonyl}pyrimidin-4-yl)amino]cyclopentyl}methyl sulfamate] | < 10 | 95 |
| NS(=O)(=O)OC[C@H]1C[C@@H](Nc2ncncc2C(=O)c2ccn(Cc3cccc(F)c3F)n2)[C@H](O)[C@@H]1O [Compound I-327, {(1R,2R,3S,4R)-4-[(5-{[1-(2,3-difluorobenzyl)-1H-pyrazol-3-yl]carbonyl}pyrimidin-4-yl)amino]-2,3-dihydroxycyclopentyl}methyl sulfamate] | < 10 | 99 |
| NS(=O)(=O)OC[C@H]1C[C@@H](Nc2ncncc2C(=O)c2ccn(Cc3ccc(F)cc3C(F)(F)F)n2)C[C@@H]1O [Compound I-328, [(1R,2S,4R)-4-{[5-({1-[4-fluoro-2-(trifluoromethyl)benzyl]-1H-pyrazol-3-yl}carbonyl)pyrimidin-4-yl]amino}-2-hydroxycyclopentyl]methyl sulfamate] | 10 to 100 | 65 |
| NS(=O)(=O)OC[C@H]1C[C@@H](Nc2ncncc2C(=O)c2ccn(Cc3cc(F)c(F)cc3F)n2)C[C@@H]1O [Compound I-329, {(1R,2S,4R)-2-hydroxy-4-[(5-{[1-(2,4,5-trifluorobenzyl)-1H-pyrazol-3-yl]carbonyl}pyrimidin-4-yl)amino]cyclopentyl}methyl sulfamate] | < 10 | 93 |
